Measurements from US20250313574A1, “SIALIC ACID DERIVATIVES AND METHODS OF USING SAME” (EISAI R&D MANAGEMENT CO., LTD., priority 2022, published 2025).

Legend:
[1] = target: Recombinant Human Siglec-3/CD33 protein (His-CD33) (Homo sapiens (Human), UniProt P20138); experiment: Differential scanning fluorimetry (DSF) thermal shift assay; assay type: binding
[2] = target: Recombinant human CD33 protein (Homo sapiens (Human), UniProt P20138); experiment: CD33 competitive binding assay for HTS drug screen (fluorescent multivalent sialic acid probe)
How it was run: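 Inhibition was read as reduced retention of a fluorescent multivalent sialic acid complex (final 5 μM neutravidin, 15 μM A-375, 5 μM biotin-4-FITC) on plate-immobilized human CD33. Compound was added first, the probe followed for 30 min at room temperature in PBS with 0.2% Tween-20 and 0.5% BSA, and FITC was measured after a wash.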

[3] = difference in thermal melt of CD33 protein (0.5 μM) with 50 μM compound
[4] = thermal melt shift of 0.5 μM CD33 protein with 50 μM compound

Recombinant human CD33 protein, sequence (P20138 18-259): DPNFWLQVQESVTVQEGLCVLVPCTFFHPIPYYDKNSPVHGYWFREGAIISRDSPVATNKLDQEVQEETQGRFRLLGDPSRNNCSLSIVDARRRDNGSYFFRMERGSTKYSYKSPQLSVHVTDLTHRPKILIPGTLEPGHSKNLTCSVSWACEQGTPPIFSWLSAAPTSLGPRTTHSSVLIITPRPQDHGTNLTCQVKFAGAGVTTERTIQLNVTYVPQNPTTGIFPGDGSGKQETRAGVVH
Recombinant Human Siglec-3/CD33 protein (His-CD33), sequence (P20138 18-259): as above

Structure (SMILES) | DSF (dTmD) [1, 3] [°C] | EC50 [2] [nM] | DSF (dTmD) [1, 4]
CC(=O)N[C@H]1[C@H]([C@H](O)[C@H](O)CNC(=O)c2cc(C)c(N)c(C)c2)O[C@@](CCN2CCOC[C@@]23CCN(C(=O)OC(C)(C)C)C3)(C(=O)O)C[C@@H]1O [A-119] |  | 17 | 14.0
CC(=O)N[C@H]1[C@H]([C@H](O)[C@H](O)CNC(=O)c2cc(C)c(O)c(C)c2)O[C@@](C/C=C/c2cccc(CNC(=O)c3cccc(NCc4nc(C)cs4)c3)c2)(C(=O)O)C[C@@H]1O [A-245] | 1.2 | 9460 | 
CC(=O)N[C@H]1[C@H]([C@H](O)[C@H](O)CNC(=O)c2cc(C)c(O)c(C)c2)O[C@@](CCN2CCOC[C@@]23CCN(C(=O)NC2CCC(F)(F)CC2)C3)(C(=O)O)C[C@@H]1O [A-051] |  | 64 | 10.8
CCN(CC)C(=O)N1CC[C@@]2(COCCN2CC[C@]2(C(=O)O)C[C@H](O)[C@@H](NC(C)=O)[C@H]([C@H](O)[C@H](O)CNC(=O)c3cc(C)c(O)c(C)c3)O2)C1 [A-066] |  | 156 | 8.4
CC(=O)N[C@H]1[C@H]([C@H](O)[C@H](O)CNC(=O)c2cc(C)c(O)c(C)c2)O[C@@](CCN2CCOC[C@@]23CCN(C(=S)NC2CC2)C3)(C(=O)O)C[C@@H]1O [A-058] |  | 1380 | 5.0
CC(=O)N[C@H]1[C@H]([C@H](O)[C@H](O)CNC(=O)c2cc(C)c(O)c(C)c2)O[C@@](C/C=C/c2cccc(CNC(=O)c3ccc(Nc4ncccn4)cc3)c2)(C(=O)O)C[C@@H]1O [A-240] | 6.2 | 227 | 
CC(=O)N[C@H]1[C@H]([C@H](O)[C@H](O)CNC(=O)c2cc(C)c(O)c(C)c2)O[C@@](C/C=C/c2cccc(CNC(=O)c3ccc4[nH]c(C(C)(C)CO)cc4c3)c2)(C(=O)O)C[C@@H]1O [A-249] | 8.1 | 224 | 
CC(=O)N[C@H]1[C@H]([C@H](O)[C@H](O)CNC(=O)c2cc(C)n(C)n2)O[C@@](CCN2CCOC[C@@]23CCN(C(=O)OC(C)(C)C)C3)(C(=O)O)C[C@@H]1O [A-154] |  | 137 | 9.3
CC(=O)N[C@H]1[C@H]([C@H](O)[C@H](O)CNC(=O)c2cc(C)c(O)c(C)c2)O[C@@](C/C=C/c2cccc(CNC(=O)c3cccc(NCc4cncs4)c3)c2)(C(=O)O)C[C@@H]1O [A-246] | 2.2 | 4000 | 
CCc1cccc(C(=O)NC[C@@H](O)[C@@H](O)[C@@H]2O[C@@](CCN3CCOC[C@@]34CCN(C(=O)OC(C)(C)C)C4)(C(=O)O)C[C@H](O)[C@H]2NC(C)=O)c1 [A-155] |  | 200 | 10.1
CC(=O)N[C@H]1[C@H]([C@H](O)[C@H](O)CNC(=O)c2cnc3[nH]nc(C)c3c2)O[C@@](CCN2CCOC[C@@]23CCN(C(=O)OC(C)(C)C)C3)(C(=O)O)C[C@@H]1O [A-127] |  | 59 | 11.7
COc1cc(C(=O)NC[C@@H](O)[C@@H](O)[C@@H]2O[C@@](CCN3CCOC[C@@]34CCN(C(=O)OC(C)(C)C)C4)(C(=O)O)C[C@H](O)[C@H]2NC(C)=O)cc(OC)c1O [A-123] |  | 68 | 11.0
CC(=O)N[C@H]1[C@H]([C@H](O)[C@H](O)CNC(=O)c2ccc(=O)[nH]c2)O[C@@](CCN2CCOC[C@@]23CCN(C(=O)OC(C)(C)C)C3)(C(=O)O)C[C@@H]1O [A-171] |  | 10300 | 3.6
CC(=O)N[C@H]1[C@H]([C@H](O)[C@H](O)CNC(=O)c2cc(C)c(O)c(C)c2)O[C@@](CCN2CCOC[C@@]23CCN(C(=O)C2CC4(C2)CC(F)(F)C4)C3)(C(=O)O)C[C@@H]1O [A-069] |  | 123 | 8.3
CC(=O)N[C@H]1[C@H]([C@H](O)[C@H](O)CNC(=O)c2c[nH]c(C)n2)O[C@@](CCN2CCOC[C@@]23CCN(C(=O)OC(C)(C)C)C3)(C(=O)O)C[C@@H]1O [A-139] |  | 610 | 6.2
CC(=O)N[C@H]1[C@H]([C@H](O)[C@H](O)CNC(=O)c2ccc3cn[nH]c3c2)O[C@@](CCN2CCOC[C@@]23CCN(C(=O)OC(C)(C)C)C3)(C(=O)O)C[C@@H]1O [A-151] |  | 206 | 8.9
CC(=O)N[C@H]1[C@H]([C@H](O)[C@H](O)CNC(=O)c2cc(C)c(O)c(C)c2)O[C@@](CCN2CCOC[C@@]23CCN(C(=O)C2(C)CCC2)C3)(C(=O)O)C[C@@H]1O [A-103] |  | 1020 | 6.6

Now from value to compound:

DSF (dTmD) [1, 3] [°C] | EC50 [2] [nM] | DSF (dTmD) [1, 4] | Structure (SMILES)
5.4 | 792 |  | CC(=O)N[C@H]1[C@H]([C@H](O)[C@H](O)CNC(=O)c2cc(C)c(O)c(C)c2)O[C@@](CC2OC(C)(C)O[C@H]2c2cccc(NC(=O)C(=O)[C@H](C)c3cc(C4CC4)no3)c2)(C(=O)O)C[C@@H]1O (some centres unmarked) [A-305]
4.2 | 4460 |  | CC(=O)N[C@H]1[C@H]([C@H](O)[C@H](O)CNC(=O)c2cc(C)c(O)c(C)c2)O[C@@](C/C=C/c2cccc(CNC(=O)C3CCC(Nc4ncccn4)C3)c2)(C(=O)O)C[C@@H]1O (some centres unmarked) [A-255]
7.6 | 578 |  | CC(=O)N[C@H]1[C@H]([C@H](O)[C@H](O)CNC(=O)c2cc(C)c(O)c(C)c2)O[C@@](C/C=C/c2cccc(CNC(=O)c3ccc4[nH]c(-c5cccn5-c5ncccn5)nc4c3)c2)(C(=O)O)C[C@@H]1O [A-252]
2.8 | 4220 |  | CC(=O)N[C@H]1[C@H]([C@H](O)[C@H](O)CNC(=O)c2cc(C)c(O)c(C)c2)O[C@@](CC2OC(C)(C)O[C@H]2c2ccc(C)c(N3CCCC3=O)c2)(C(=O)O)C[C@@H]1O (some centres unmarked) [A-319]
3.8 | 4860 |  | CC(=O)N[C@H]1[C@H]([C@H](O)[C@H](O)CNC(=O)c2cc(C)c(O)c(C)c2)O[C@@](CC2OC(C)(C)O[C@H]2c2cccc(N3CCCCC3=O)c2)(C(=O)O)C[C@@H]1O (some centres unmarked) [A-316]
6.0 | 2800 |  | Cc1cc(C(=O)NC[C@@H](O)[C@@H](O)[C@@H]2O[C@@](C/C=C/c3cccc(CNC(=O)c4cnccn4)c3)(C(=O)O)C[C@H](O)[C@H]2NC(=O)Cn2cc(C3CCCCC3)nn2)cc(C)c1O [A-270]
3.1 | 5810 |  | CC(=O)N[C@H]1[C@H]([C@H](O)[C@H](O)CNC(=O)c2cc(C)c(O)c(C)c2)O[C@@](C/C=C/c2cccc(CNC(=O)C3CCCC(Nc4ccc(C)cn4)C3)c2)(C(=O)O)C[C@@H]1O (some centres unmarked) [A-259]
5.3 | 2680 |  | CC(=O)N[C@H]1[C@H]([C@H](O)[C@H](O)CNC(=O)c2cc(C)c(O)c(C)c2)O[C@@](C/C=C/c2ccccc2CNC(=O)OC(C)(C)C)(C(=O)O)C[C@@H]1O [A-288]
2.7 | 9980 |  | Cc1cc2cc(C)c1OCCOC[C@@H](NC(=O)C1CCCOC1)COC/C=C/C[C@]1(C(=O)O)C[C@H](O)[C@@H](NC(=O)Cn3cc(C4CCCCC4)nn3)[C@@H](O1)[C@H](O)[C@H](O)CNC2=O (some centres unmarked) [A-341]
3.8 | 4900 |  | Cc1cc(C(=O)NC[C@@H](O)[C@@H](O)[C@@H]2O[C@@](C/C=C/c3cccc(CNC(=O)c4ccc5[nH]cnc5c4)c3)(C(=O)O)C[C@H](O)[C@H]2NC(=O)Cn2cc(C3CCCCC3)nn2)cc(C)c1O [A-280]
4.9 | 4330 |  | Cc1cc(C(=O)NC[C@@H](O)[C@@H](O)[C@@H]2O[C@@](OC3CCCCC3NC(=O)Cn3cc(Cn4ncc5ccccc5c4=O)nn3)(C(=O)O)C[C@H](O)[C@H]2NC(=O)Cn2cc(C3CCCCC3)nn2)cc(C)c1O (some centres unmarked) [A-331]
